Measured values taken from PubChem BioAssay (NCI).
Values joined by “and” are separate entries in the source; they are usually repeats but may differ in a detail not shown here. Equal values may be shown once.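 Each compound was tested at five concentrations against cells in 96-well plates for 48 hours. GI50 marks 50% less growth. The concentration for full growth arrest is given as TGI.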

Columns and labels:
Experiment in all cases: NCI anticancer screen, dose series, 48 h
DLD-1 colon = system: DLD-1 colon
SF-295 CNS = system: SF-295 CNS
HOP-18 NSCLC = system: HOP-18 NSCLC
LOX IMVI melanoma = system: LOX IMVI melanoma
HCT-116 colon = system: HCT-116 colon
MALME-3M melanoma = system: MALME-3M melanoma
A549 NSCLC = system: A549 NSCLC
TK-10 renal = system: TK-10 renal
RPMI-8226 leukemia = system: RPMI-8226 leukemia
NCI/ADR-RES ovarian = system: NCI/ADR-RES ovarian

Structure (SMILES) | TGI (DLD-1 colon) [µM] | TGI (SF-295 CNS) | TGI (HOP-18 NSCLC) [µM] | TGI (LOX IMVI melanoma) | TGI (HCT-116 colon) | TGI (MALME-3M melanoma) | TGI (A549 NSCLC) | TGI (TK-10 renal) | TGI (RPMI-8226 leukemia) | GI50 (MALME-3M melanoma) | GI50 (DLD-1 colon) [µM] | GI50 (SF-295 CNS) [µM] | GI50 (HOP-18 NSCLC) [µM] | GI50 (LOX IMVI melanoma) [µM] | GI50 (HCT-116 colon) | GI50 (A549 NSCLC) [µM] | GI50 (TK-10 renal) [µM] | GI50 (RPMI-8226 leukemia) [µM] | GI50 (NCI/ADR-RES ovarian) [µM] | TGI (NCI/ADR-RES ovarian) [µM]
O=C(CC1=Nc2nnc(CCCCCCCc3nnc4n3C(=O)C(CC(=O)c3ccc5ccccc5c3)=N4)n2C1=O)c1ccc2ccccc2c1 | > 100 | > 100 µM | > 100 | > 100 µM | > 100 µM | > 100 µM | > 100 µM | > 100 µM | > 100 µM | – | – | – | – | – | – | – | – | – | – | –
COC(=O)C1CC(c2ccc(OC)c(OC)c2)OC1=O (mixture of isomers) | > 100 | > 100 µM | – | > 100 µM | > 100 µM | > 100 µM | > 100 µM | > 100 µM | > 100 µM | – | – | – | – | – | – | – | – | – | – | –
c1ccc2c(c1)[nH]c1c2nc2ccccn21 | > 100 | > 100 µM | > 100 | – | > 100 µM | > 100 µM | > 100 µM | > 100 µM | > 100 µM | 27.8 µM and > 100 µM | – | – | – | – | – | – | – | – | – | –
CC(=O)[CH-]C(C)=O.CC(=O)[CH-]C(C)=O.[O-]c1ccccc1.[O-]c1ccccc1.[Ti+4] | > 100 | > 100 µM | > 100 | > 100 µM | > 100 µM | > 100 µM | > 100 µM | > 100 µM | > 100 µM | > 100 µM | > 100 | > 100 | > 100 | > 100 | > 100 µM | > 100 | > 100 | > 100 | – | –
Cc1cc(Cl)ccc1NC(=O)CCCC(=O)C1C/C(=N/O)CC/C1=N\O (configuration not stated) | > 100 | > 100 µM | > 100 | – | > 100 µM | > 100 µM | > 100 µM | > 100 µM | > 100 µM | – | – | – | – | – | – | – | – | – | – | –
C[C@@H]1C[C@@H]([C@H](O)CC2CC(=O)NC(=O)C2)C(=O)[C@@H](C)C1 | 1.98 | 1.19 µM and 1.69 µM | – | 3.53 µM and 0.816 µM | 4.35 µM and 1.42 µM | 4.7 µM and 3.5 µM | 1.76 µM and 1.73 µM | 2.39 µM and 1.01 µM | 3.02 µM and 0.494 µM | 0.235 µM | – | 0.176 | – | 0.258 | 0.197 µM | 0.204 | 0.22 | 0.451 | 0.358 | 9.16
Cn1c(=O)oc2cc(C3CCC(=O)N3Cc3csc(-c4ccccc4)n3)ccc21 (configuration not stated) | > 100 | > 100 µM | > 100 | > 100 µM | > 100 µM | > 100 µM | > 100 µM | > 100 µM | > 100 µM | – | – | – | – | – | – | – | – | – | – | –
[N-]=[N+]=CC(=O)CCC(N)C(=O)O (configuration not stated) | > 170 | > 250 µM | > 250 | 167 µM | > 250 µM | > 250 µM | > 250 µM | 244 µM | – | 7.27 µM | – | – | – | 0.793 | 0.457 µM and 0.955 µM | 2.78 | 35.6 | – | – | > 245
CC(=O)N1[C@H](C(=O)O)CS[C@H]1c1ccc(F)cc1 | – | > 100 µM | > 100 | > 100 µM | 78.7 µM | > 100 µM | > 100 µM | > 100 µM | – | – | – | – | – | – | – | – | – | – | – | –
O=C1NC(O)n2c(=O)[nH]c(=O)n21 (configuration not stated) | > 100 | > 100 µM | > 100 | > 100 µM | > 100 µM | – | > 100 µM | > 100 µM | > 100 µM | – | – | – | – | – | – | – | – | – | – | –
COC(=O)C1C=CCC2CCCCC21N1CCCC1 (configuration not stated) | > 100 | > 100 µM | > 100 | > 100 µM | > 100 µM | > 100 µM | > 100 µM | > 100 µM | > 100 µM | – | – | – | – | – | – | – | – | – | – | –
Cc1c(C)c([N+](=O)[O-])c2c(c1N)C(=O)c1ccccc1C2=O | > 100 | > 100 µM | > 100 | > 100 µM | > 100 µM | > 100 µM | > 100 µM | > 100 µM | > 100 µM | – | – | – | – | – | – | – | – | – | – | –
O=c1c(Cc2ccccc2)c(O)cc2n1CCC2 | > 100 | > 100 µM | > 100 | > 100 µM | > 100 µM | > 100 µM | > 100 µM | > 100 µM | > 100 µM | – | – | – | – | – | – | – | – | – | – | –
Cc1cc2c(c(C(=O)O)c1C)-c1cccc(Cl)c1C2=O | > 100 | > 100 µM | – | > 100 µM | – | > 100 µM | > 100 µM | > 100 µM | > 100 µM | – | – | – | – | – | – | – | – | – | – | –
CN1CCCC2[C@@H]3CCC4c5nonc5CC[C@]4(C)C3CC[C@@]21C (some centres not stated) | > 100 | > 100 µM | > 100 | – | > 100 µM | > 100 µM | > 100 µM | > 100 µM | > 100 µM | – | – | – | – | – | – | – | – | – | – | –
CC(=O)Nc1ccc(C2CC(c3ccc([N+](=O)[O-])cc3)=Nc3ccccc3S2)cc1 (configuration not stated) | 32.4 | 35 µM | 78.2 | 32.3 µM | 25.1 µM | 35.1 µM | 56 µM | 44.4 µM | – | – | – | – | – | – | – | – | – | – | – | –
